The record followed here is patent publication US20250042918A1, “COMPOUNDS” (Fundación Del Sector Públlco Estatal Centro Nacional De …, priority 2021, published 2025).

Experiment [1] concerns human leukaemia KG-1 subcutaneous xenograft. The experiment is described as follows: In vivo efficacy in leukaemia model, subcutaneous xenograft. The settings on record: KG-1 xenograft, CB-17 SCID mice, oral 25 BID, 50 and 100 mg/kg QD, 21 days. On the procedure: The anti-tumour efficacy of the compound of Example 1 was measured in human leukaemia KG-1 subcutaneous xenograft models in CB-17 SCID mice.
Mice grouping was on day 0 (DO) and Example 1 25 BID*21 group was started on the evening of day 0 (DO), other groups were started on the morning of day 1 (D1). At the 21 days of the treatment, 8 h and 24h post the last dose, 4 mice each from vehicle group, Example 1 25 mg/kg BID group and Example 1 50 mg/kg group were subjected tumour collection.
Animals: Female mice (Mus musculus) strain: CB-17 SCID; 6-8 weeks old Body weight: 18-20 g; were obtained from Shanghai Lingchang BioTech Co., Ltd. Of the 59 obtained, 40 were grouped for efficacy study. The mice were kept in individual ventilation cages at constant temperature (20˜26° C.) and humidity (40-70%) with 5 animals in each cage. […]
Tumour Measurements and the Endpoints: The major endpoint was tumour growth delay or cure. Tumour size was measured thrice weekly in two dimensions using a caliper, and the volume was expressed in mm^3 using the formula: V=0.5 a×b^2 where a and b were the long and short diameters of the tumour, respectively. […] TGI was calculated according to the following equation: […]

A further experiment concerns T-47D. The experiment is described as follows: In vitro potency against breast cancer cell lines (CellTiter Glo). It is filed as cell-based. The settings on record: Homo sapiens, T47D, 72 h; read-out: absolute IC50 T-47D. On the procedure:
(§1) To prepare the complete medium FBS and appropriate additives were added according to the information sheet provided by the vendor and mixed gently. The cell name and complete medium and passage number marked on the flask were checked, and the culture medium removed and discarded using a vacuum pump. […] 3.0 ml of Trypsin-EDTA solution was added to the flask and the cells observed under an inverted microscope until cell layer is dispersed. 8.0 ml of complete growth medium was added and the cells aspirated by gently pipetting. The cell suspension was transferred to a centrifuge tube and centrifuged at 800-1000 rpm for 3-5 minutes. The supernatant was discarded using a vacuum pump, and an appropriate volume of complete medium added. The cell pellet was suspended by gently pipetting, and the cell numbers counted with Vi-cell XR and the cells adjusted to appropriate density. 100 μL of cell suspension to 96-well opaque-walled clear bottom plates was added according to the planned plate layout and the plates placed in the CO2 incubator overnight.
(§2) c. […] Meanwhile the day 0 plate was measured by Cell TiterGlo as listed below.
(§3) d. Cells were incubated with the compounds for 72 h at 5% CO2, 37° C.
(§4) The CellTiter-Glo buffer was thawed and equilibrated to room temperature prior to use. The lyophilized CellTiter-Glo substrate was equilibrated to room temperature prior to use. The appropriate volume of CellTiter-Glo buffer was transferred into the amber bottle containing CellTiter-Glo substrate to reconstitute the lyophilized enzyme/substrate mixture, thereby forming the CellTiter-Glo reagent. Mixing was carried out by gently vortexing, swirling or by inverting the contents to obtain a homogeneous solution, the CellTiter-Glo substrate going into solution easily in less than one minute.
(§5) The plate and its contents were equilibrated to room temperature for approximately 30 minutes, after which 100 μL of CellTiter-Glo reagent was added to the assay plate by Multidrop Combi instrument and the contents mixed for 10 minutes on an orbital shaker to induce cell lysis. The plate was allowed to incubate at room temperature for 10 minutes to stabilize luminescent signal and the clear bottom pasted with white back seal and the luminescence recorded with Enspire with the settings: Luminescence, measurement time 0.1 ms.

The subject of a further experiment is HCC1143. The description is as above. Type of experiment: cell-based. The settings on record: Homo sapiens, HCC1143, 72 h; read-out: absolute IC50 HCC1143. The procedure: as §1, §2, §3, §4, §5
For the next experiment, the system named is HCC1954. Described as above. It is filed as cell-based. The settings on record: Homo sapiens, HCC1954, 72 h; read-out: absolute IC50 HCC1954. The procedure: as §1, §2, §3, §4, §5
The test system of a further experiment is MDA-MB-361. Described as above. Type of experiment: cell-based. The settings on record: Homo sapiens, MDA-MB-361, 72 h; read-out: absolute IC50 MDA-MB-361. The procedure: as §1, §2, §3, §4, §5
Another experiment concerns BT-474. The experiment is described as above. Type of experiment: cell-based. The settings on record: Homo sapiens, BT-474, 72 h; read-out: absolute IC50 BT-474. On the procedure: as §1, §2, §3, §4, §5
A further experiment concerns HCC38. Described as above. It is filed as cell-based. The settings on record: Homo sapiens, HCC38, 72 h; read-out: absolute IC50 HCC38. On the procedure:
as §1, §2, §3, §4, §5

As for `CN1CCOc2c1c(N[C@H]1CC[C@@](C)(O)CC1)nn1c(-c3cccc(OC(F)(F)F)c3)nnc21` [Example 1, 1-Methyl-4-[6-methyl-3-(3-trifluoromethoxy-phenyl)-7,8-dihydro-6H-9-oxa-1,2,3a,4,6-pentaaza-cyclopenta[a]naphthalen-5-ylamino]-cyclohexanol], the “anti-tumour efficacy (tumour volume)” value in experiment [1] is “effective”. Further, the IC50 with T-47D was 6.19 µM; with HCC1143 it was 5.56 µM; in the experiment with HCC1954 it was 8.04 µM; in the experiment with MDA-MB-361, 9 µM; in the experiment with BT-474 it was 7.77 µM; in the experiment on HCC38, 5.56 µM.

The IC50 is the concentration needed to halve the response being measured.
